# From patent US20100069387A1, “IKK Inhibitors for the Treatment of Endometriosis” (priority 2005, published 2010)
# What was measured:
# [1] = cited from earlier work
# endometriotic lesions [2] = experiment: Nude mouse xenograft model of endometriosis (human endometrial tissue injected in ovarectomized nude mice); assay type: in vivo; details: for Lesion (% Progesterone) Compared to progesterone treated group, decrease: treatment started 10 days after tissue injection
# Method: Human endometrial tissue was injected in ovarectomized nude mice to establish the disease (Bruner-Tran et al 2002). In brief, endometrial biopsies obtained from normal volunteers or from endometriotic patients were cut into small pieces and cultured in the presence of estradiol for 24 h. Treated tissues, were injected either subcutaneously or intraperitoneally into ovarectomized nude mice with estradiol implant. Within 2-4 days of injection, ectopic endometriotic lesions develop in animals. Treatment with either progesterone or IKK inhibitor-5 (1-(4-{4-[4-(4-Chloro-phenyl)-pyrimidin-2-ylamino]-benzoyl}-piperazin-1-yl)-ethanone) was started 10 days following the injection of tissue. The compound was administered at a dose of 10 mg/kg and 30 mg/kg/animal for 15 days. […] Following the completion of treatment, animals were sacrificed, lesions developed from the transplanted tissue found in both subcutaneous and intraperitoneal sites, were measured (both size and number).
# The IKK inhibitor treatment had no effect on the uterine weight and size of the animals.
# endometriotic lesions [3] = details: control treatment; earlier work using this model; cited from earlier work
# endometriotic lesions [4] = details: experimental model of endometriosis; cited from earlier work
# [5] = 10 mg/kg × 15 days, listed as IKK inhibitor
# [6] = 30 mg/kg × 15 days, listed as IKK inhibitor
molecule,measurement,setting,value
C#C[C@]1(O)CC[C@H]2[C@@H]3CCC4=Cc5oncc5C[C@]4(C)[C@H]3CC[C@@]21C [Danazol],recurrence rates,[1]; after up to 4 years,40%-50%
same,patients suffering from pain with improved symptoms,[1]; endometriosis patients,66-100%
"CC(=O)N1CCN(C(=O)c2ccc(Nc3nccc(-c4ccc(Cl)cc4)n3)cc2)CC1 [IKK inhibitor-5, 1-(4-{4-[4-(4-Chloro-phenyl)-pyrimidin-2-ylamino]-benzoyl}-piperazin-1-yl)-ethanone]","Lesion size, decrease",endometriotic lesions [2]; 10 mg/kg × 15 days,90% Decrease
same,"Lesion (% Progesterone) Compared to progesterone treated group, decrease",endometriotic lesions [2]; 10 mg/kg × 15 days,125% Decrease
same,"Lesion (% Progesterone) Compared to progesterone treated group, decrease",endometriotic lesions [2]; [5],125%
same,"Lesion size, decrease",endometriotic lesions [2]; [5],90%
same,"Lesion size, decrease",endometriotic lesions [2]; 30 mg/kg × 15 days,75% Decrease
same,"Lesion (% Progesterone) Compared to progesterone treated group, decrease",endometriotic lesions [2]; 30 mg/kg × 15 days,100% Decrease
same,"Lesion (% Progesterone) Compared to progesterone treated group, decrease",endometriotic lesions [2]; [6],100%
same,"Lesion size, decrease",endometriotic lesions [2]; [6],75%
same,effect on the uterine weight and size of the animals,"endometriotic lesions [2]; nude mice, 15 days treatment",no effect
CC(=O)[C@H]1CC[C@H]2[C@@H]3CCC4=CC(=O)CC[C@]4(C)[C@H]3CC[C@]12C [progesterone],disease progression,endometriotic lesions [3],prevents disease progression
"rh-TBP-1: recombinant human TNFα binding protein (protein, UniProt P19438 30-211, looked up, extracellular domain) extracellular domain: LVPHLGDREKRDSVCPQGKYIHPQNNSICCTKCHKGTYLYNDCPGPGQDTDCRECESGSFTASENHLRHCLSCSKCRKEMGQVEISSCTVDRDTVCGCRKNQYRHYWSENLFQCFNCSLCLNGTVHLSCQEKQNTVCTCHAGFFLRENECVSCSNCKKSLECTKLCLPQIENVKGTEDSGTT",size and severity of endometriotic lesions,endometriotic lesions [4],effective in reducing the size and severity of endometriotic lesions
